Source: patent publication US20250345321A1, “CATEQUENTINIB (ANLOTINIB) IN SEQUENTIAL COMBINATION WITH IMMUNOTHERAPY FOR USE IN THE TREATMENT OF CANCER” (ADVENCHEN PHARMACEUTICALS, LLC, priority 2019, published 2025)
Where a name gives a salt, the structure may show the parent alone.

Legend:
[1] = test system: recurrent or advanced endometrial, ovarian, and cervical cancer; test: Phase 1 efficacy of AL3818 with standard platinum-based chemotherapy (best response); format: in vivo, human; parameters: key to Best response: stable disease (SD); partial response (PR); complete response (CR)
Text: Patients in this trial were females with recurrent or advanced endometrial, ovarian, and cervical cancer.
In this described study, all patients received at least one dose of AL3818 dihydrochloride orally. Aside of three patients were permanent discharged from this study due to severe adverse events (SAE), the other six patients' best response ranged from stable disease (SD) (⅙, 16.7%), partial response (PR) ( 4/6, 66.6%) to complete response (CR) (⅙, 16.7%).
1. The daily dosage of compound AL3818 was the initial dosage that administrated to the patients, which might subject to a dosage reduction if serious side-effects were observed.
2. The best response represented the most favorable outcome during the entire treatment, regardless of the possible disease progression (PD) after that.

endometrial cancer = test: Phase 2a efficacy of AL3818 with standard platinum-based chemotherapy, endometrial cancer patients; format: in vivo, human; parameters: key to Best response: stable disease (SD); partial response (PR); complete response (CR)
Procedure: (§1) Phase 1 was completed in Q1 2017 at one study site to determine the recommend phase 2 dose (RP2D). The RP2D was determined to be AL3818 dihydrochloride 8 mg orally once daily in 21-day cycles (14 days on treatment, 7 days off treatment) on Day 8 to Day 21 of the cycle with platinum-based chemotherapy on Day 1 of the cycle.
(§2) Phase 2a is currently ongoing at four study sites in the U.S. The first subject was enrolled in April 2017. As of December 2018, 48 subjects with recurrent or metastatic endometrial, ovarian, and cervical cancer have been enrolled. 24 subjects are still on treatment and 24 subjects have discontinued treatment. 21 endometrial cancer subjects have been enrolled, 9 subjects have discontinued treatment. 8 subjects discontinued due to disease progression, 1 subject discontinued due to toxicity. 12 subjects remain on treatment.
Combining Phase 1 and Phase 2a subjects, 24 subjects with endometrial cancer have been enrolled in study AL3818-US-002. 19 subjects have had evaluable responses as of December 2018. There were eight subjects enrolled in Phase 2a of the study as first-line treatment.

ovarian cancer = test: Phase 2a efficacy of AL3818 with standard platinum-based chemotherapy, ovarian cancer patients; format: in vivo, human; parameters: key: stable disease (SD); partial response (PR); complete response (CR); conditions: single ovarian cancer subjects, 8 mg daily + chemotherapy, December 2018, PtR = platinum resistant
Procedure: as §1, §2

[2] = Phase 2a chemo combination trial: TEAEs and toxicity; format: in vivo, human
Procedure: as §1, §2

[3] = Phase 1 chemo combination dosing de-escalation trial: safety, tolerability, DLT events
Text: A Phase 1 trial was designed to determine the recommended phase 2 dose (RP2D) for part 2 (phase 2a) of the study.
In this presented chemo combination therapy regimen, in the first day of the 21-day cycle, standard platinum-based chemotherapeutic agents were administrated intravenously to the patients. […] 1-6 cycles of chemotherapy were applied for each individual patient.
After the intravenous (IV) chemotherapy on the Day 1, Day 2 to Day 7 was the therapy free period.
From Day 22 (C2D1) (CXDY is the abbreviation for Cycle X Day Y. For example, C2D1 represents Cycle 2 Day 1), a new cycle began, paclitaxel and carboplatin (or cisplatin for cervical cancer) were administrated to the patients and Day 23 to Day 28 (C2D2 • C2D7) was the therapy free period again.
The first 21-day cycle plus 7 days (C1D1-C2D8 or Day 1 to Day28) was crucial in this regimen and it was called the primary safety evaluation period. The recommended phase 2 dose (RP2D) was obtained by evaluating according to the standard for the dose limiting toxicity (DLT) events of patients in this period of time.
This evaluation period could be extended to the end of second cycle for the patients who passed the primary safety evaluation period.
In this embodiment, if any serious dose limiting toxicity (DLT) events or other serious side effects occurred, according to the serious level, the patients might require to withdraw the treatment, reduce the dose of medication or switch to other medications.

[4] = AL3818 combination therapy with Nivolumab Phase I trial (DLT); format: in vivo, human; conditions: 10 mg oral Day 1-14 + Nivolumab 240 mg infusion Day 1 and Day 15 per 28 days; six sarcoma subjects
Text: AL3818 and Nivolumab administrations are both started on Day 1.
Nivolumab is administrated via infusion on Day 1 and Day 15 for twice per 28 days, 21 days as one cycle will still be applied for the combination therapy. Nivolumab can be administrated via infusion on Day 1 once per 28 days, 21 days as one cycle will still be applied for the combination therapy. AL3818 is administrated orally from Day 1 to Day 14 and off from Day 15 to Day 21 for 21 days as one cycle. Nivolumab is administrated via infusion on Day 1 and Day 15 for twice per 28 days starting dose at 240 mg twice per 28 days. Nivolumab can be optionally administrated via infusion on Day 1 once per 28 days at 480 mg. AL3818 is administrated orally at Day 1-Day 14 at starting dose of 12 mg.
Treatments of subject 001 (liposarcoma), 002 (synovial sarcoma), 003 (angiosarcoma), 004 (leiomyosarcoma), 005 (undifferentiated pleomorphic sarcoma) and 006 (leiomyosarcoma) at 10 mg oral dosing Day 1-14 combing with Nivolumab at Day 1 and Day 15 for twice per 28 days starting dose at 240 mg infusion have been completed with one DLT (subject 002). Dose escalation to 12 mg combination therapies with Nivolumab with cervical cancer subject and other sarcoma subjects are ongoing.

VEGFR1 = VEGFR1 (Homo sapiens, UniProt P17948); conditions: cited from earlier work
VEGFR2/KDR = VEGFR2/KDR (Homo sapiens, UniProt P35968); conditions: cited from earlier work
VEGFR3 = VEGFR3 (Homo sapiens, UniProt P35916); conditions: cited from earlier work
Chain of VEGFR3 (P35916 25-1363): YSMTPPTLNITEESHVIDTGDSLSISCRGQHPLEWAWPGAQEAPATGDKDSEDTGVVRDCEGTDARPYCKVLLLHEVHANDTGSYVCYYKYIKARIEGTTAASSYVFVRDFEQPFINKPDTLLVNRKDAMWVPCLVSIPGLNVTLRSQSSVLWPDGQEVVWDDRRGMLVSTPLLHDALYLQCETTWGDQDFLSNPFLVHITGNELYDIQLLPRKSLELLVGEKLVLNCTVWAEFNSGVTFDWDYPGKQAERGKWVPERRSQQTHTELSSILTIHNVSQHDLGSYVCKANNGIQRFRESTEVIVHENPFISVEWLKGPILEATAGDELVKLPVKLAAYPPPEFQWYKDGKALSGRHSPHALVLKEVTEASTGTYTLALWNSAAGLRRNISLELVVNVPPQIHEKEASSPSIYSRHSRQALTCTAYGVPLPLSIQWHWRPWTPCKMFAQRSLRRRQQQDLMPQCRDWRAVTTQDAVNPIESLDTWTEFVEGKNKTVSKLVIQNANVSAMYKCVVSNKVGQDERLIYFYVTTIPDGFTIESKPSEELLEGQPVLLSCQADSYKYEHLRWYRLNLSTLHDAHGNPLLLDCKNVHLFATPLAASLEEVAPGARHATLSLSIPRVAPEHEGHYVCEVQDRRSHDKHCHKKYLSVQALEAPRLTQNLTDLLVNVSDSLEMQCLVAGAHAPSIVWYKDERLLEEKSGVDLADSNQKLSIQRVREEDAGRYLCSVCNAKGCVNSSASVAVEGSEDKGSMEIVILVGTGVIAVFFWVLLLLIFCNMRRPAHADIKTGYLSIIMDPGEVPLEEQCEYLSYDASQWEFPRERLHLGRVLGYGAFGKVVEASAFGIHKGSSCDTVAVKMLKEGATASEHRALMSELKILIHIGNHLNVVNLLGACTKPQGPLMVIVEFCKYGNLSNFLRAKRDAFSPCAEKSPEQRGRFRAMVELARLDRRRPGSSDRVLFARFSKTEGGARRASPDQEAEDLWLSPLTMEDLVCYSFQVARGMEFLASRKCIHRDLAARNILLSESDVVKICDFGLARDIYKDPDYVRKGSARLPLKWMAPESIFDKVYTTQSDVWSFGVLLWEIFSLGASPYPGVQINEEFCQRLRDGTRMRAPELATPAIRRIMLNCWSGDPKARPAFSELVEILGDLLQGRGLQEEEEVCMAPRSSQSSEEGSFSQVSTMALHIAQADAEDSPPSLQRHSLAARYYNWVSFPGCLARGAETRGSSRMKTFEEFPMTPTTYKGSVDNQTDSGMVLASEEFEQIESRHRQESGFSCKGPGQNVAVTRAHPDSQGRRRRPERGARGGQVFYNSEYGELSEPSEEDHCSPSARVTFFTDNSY

FGFR1 = FGFR1 (Homo sapiens, UniProt P11362); conditions: cited from earlier work
Chain of FGFR1 (P11362 22-822): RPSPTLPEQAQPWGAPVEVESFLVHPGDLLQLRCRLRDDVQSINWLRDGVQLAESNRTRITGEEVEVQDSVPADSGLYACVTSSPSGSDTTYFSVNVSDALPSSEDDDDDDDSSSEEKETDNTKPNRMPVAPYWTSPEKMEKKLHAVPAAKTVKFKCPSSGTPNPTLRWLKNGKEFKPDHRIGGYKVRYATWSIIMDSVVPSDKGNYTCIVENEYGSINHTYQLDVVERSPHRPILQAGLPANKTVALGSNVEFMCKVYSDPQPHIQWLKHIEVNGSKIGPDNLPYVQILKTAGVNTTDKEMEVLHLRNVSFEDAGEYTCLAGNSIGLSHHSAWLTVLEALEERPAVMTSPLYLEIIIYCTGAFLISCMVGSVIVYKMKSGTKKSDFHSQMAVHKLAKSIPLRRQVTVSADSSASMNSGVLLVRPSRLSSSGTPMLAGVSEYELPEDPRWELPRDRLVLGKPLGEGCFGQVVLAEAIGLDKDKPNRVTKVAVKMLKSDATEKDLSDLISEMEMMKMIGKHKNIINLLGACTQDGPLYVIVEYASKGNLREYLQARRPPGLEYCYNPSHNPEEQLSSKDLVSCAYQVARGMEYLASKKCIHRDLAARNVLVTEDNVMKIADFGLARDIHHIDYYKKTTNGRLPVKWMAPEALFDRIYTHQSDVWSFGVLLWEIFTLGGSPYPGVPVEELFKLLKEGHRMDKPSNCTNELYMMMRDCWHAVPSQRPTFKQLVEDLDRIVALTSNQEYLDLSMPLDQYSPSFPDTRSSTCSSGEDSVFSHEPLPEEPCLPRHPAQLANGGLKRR

FGFR2 = FGFR2 (Homo sapiens, UniProt P21802); conditions: cited from earlier work
FGFR3 = FGFR3 (Homo sapiens, UniProt P22607); conditions: cited from earlier work
Chain of FGFR3 (P22607 23-806): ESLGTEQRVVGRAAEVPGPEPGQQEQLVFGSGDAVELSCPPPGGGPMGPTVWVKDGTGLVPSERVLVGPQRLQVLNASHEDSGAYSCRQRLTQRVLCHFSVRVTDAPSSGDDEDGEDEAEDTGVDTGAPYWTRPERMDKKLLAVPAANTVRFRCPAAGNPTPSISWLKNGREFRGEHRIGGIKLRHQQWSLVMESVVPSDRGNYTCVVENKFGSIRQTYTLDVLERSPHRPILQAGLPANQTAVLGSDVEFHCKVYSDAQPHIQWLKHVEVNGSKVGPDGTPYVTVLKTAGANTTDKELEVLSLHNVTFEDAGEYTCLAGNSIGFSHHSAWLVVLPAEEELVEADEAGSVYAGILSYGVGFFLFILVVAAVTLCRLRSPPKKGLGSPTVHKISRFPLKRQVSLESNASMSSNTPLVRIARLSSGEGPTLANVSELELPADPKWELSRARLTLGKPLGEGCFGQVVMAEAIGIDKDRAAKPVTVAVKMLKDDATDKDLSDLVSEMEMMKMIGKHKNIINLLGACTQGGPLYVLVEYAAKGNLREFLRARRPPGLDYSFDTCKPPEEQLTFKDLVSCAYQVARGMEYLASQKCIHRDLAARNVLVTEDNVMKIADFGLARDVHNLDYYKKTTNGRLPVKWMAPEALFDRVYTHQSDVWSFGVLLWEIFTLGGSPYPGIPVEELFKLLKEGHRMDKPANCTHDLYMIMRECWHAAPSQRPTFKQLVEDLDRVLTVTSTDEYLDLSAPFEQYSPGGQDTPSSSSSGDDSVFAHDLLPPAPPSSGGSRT

PDGFR-a = PDGFR-a (Homo sapiens, UniProt P16234); conditions: cited from earlier work
Chain of PDGFR-a (P16234 24-1089): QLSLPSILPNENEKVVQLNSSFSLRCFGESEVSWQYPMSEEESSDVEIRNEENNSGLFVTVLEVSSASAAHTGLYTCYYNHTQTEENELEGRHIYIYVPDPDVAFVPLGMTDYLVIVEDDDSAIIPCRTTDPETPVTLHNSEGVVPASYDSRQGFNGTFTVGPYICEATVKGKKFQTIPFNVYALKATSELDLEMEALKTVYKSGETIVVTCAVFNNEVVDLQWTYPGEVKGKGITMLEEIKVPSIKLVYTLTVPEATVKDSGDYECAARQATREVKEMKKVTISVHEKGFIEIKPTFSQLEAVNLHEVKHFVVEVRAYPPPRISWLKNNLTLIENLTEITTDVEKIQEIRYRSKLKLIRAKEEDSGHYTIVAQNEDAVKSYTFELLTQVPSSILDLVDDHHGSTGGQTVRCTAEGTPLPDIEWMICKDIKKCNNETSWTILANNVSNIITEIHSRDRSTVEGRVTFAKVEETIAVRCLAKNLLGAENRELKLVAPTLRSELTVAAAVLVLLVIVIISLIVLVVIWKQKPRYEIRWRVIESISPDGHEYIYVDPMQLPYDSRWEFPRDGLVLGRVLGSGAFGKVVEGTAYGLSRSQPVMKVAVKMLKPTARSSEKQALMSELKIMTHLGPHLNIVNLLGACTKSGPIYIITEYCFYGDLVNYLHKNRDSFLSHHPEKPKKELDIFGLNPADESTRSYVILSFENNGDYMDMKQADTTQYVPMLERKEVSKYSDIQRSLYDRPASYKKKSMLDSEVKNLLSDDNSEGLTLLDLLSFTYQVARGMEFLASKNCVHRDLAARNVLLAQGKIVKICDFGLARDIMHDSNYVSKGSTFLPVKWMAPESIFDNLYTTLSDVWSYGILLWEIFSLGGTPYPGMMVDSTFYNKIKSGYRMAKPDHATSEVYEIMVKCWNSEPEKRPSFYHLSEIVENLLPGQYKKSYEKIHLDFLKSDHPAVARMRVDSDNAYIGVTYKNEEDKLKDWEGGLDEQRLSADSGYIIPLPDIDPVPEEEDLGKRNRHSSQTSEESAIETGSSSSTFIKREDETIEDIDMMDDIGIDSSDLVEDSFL

c-KIT = c-KIT (Homo sapiens, UniProt P10721); conditions: cited from earlier work
Chain of c-KIT (P10721 26-976): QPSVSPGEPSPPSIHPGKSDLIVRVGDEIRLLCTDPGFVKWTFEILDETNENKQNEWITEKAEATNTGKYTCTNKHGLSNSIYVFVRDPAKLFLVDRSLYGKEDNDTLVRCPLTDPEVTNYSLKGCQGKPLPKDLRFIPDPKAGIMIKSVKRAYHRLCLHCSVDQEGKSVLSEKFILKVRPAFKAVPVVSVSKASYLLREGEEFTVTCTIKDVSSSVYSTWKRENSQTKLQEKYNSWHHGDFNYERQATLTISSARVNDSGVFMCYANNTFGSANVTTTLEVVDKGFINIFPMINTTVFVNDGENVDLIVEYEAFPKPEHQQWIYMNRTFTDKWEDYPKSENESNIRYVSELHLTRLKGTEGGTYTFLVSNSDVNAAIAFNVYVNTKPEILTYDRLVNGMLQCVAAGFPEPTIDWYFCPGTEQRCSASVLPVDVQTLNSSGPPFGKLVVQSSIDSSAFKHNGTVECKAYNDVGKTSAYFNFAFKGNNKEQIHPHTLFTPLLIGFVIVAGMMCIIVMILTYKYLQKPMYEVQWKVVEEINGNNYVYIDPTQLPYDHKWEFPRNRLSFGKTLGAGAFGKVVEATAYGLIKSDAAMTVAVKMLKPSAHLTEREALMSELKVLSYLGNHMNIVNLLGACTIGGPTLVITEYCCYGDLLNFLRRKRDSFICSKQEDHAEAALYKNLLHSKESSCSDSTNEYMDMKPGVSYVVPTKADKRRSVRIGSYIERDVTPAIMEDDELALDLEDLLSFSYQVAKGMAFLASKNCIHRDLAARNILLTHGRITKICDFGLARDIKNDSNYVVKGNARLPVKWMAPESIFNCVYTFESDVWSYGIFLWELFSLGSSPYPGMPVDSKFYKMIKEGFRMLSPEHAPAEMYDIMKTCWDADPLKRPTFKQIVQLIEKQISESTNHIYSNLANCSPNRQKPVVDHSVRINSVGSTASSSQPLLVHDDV

tumor = conditions: mouse model, disclosed in earlier filing; cited from earlier work
[5] = single subject, ovarian cancer, daily dosage 8 mg + standard paclitaxel and carboplatin
[6] = single subjects, endometrial cancer, daily dosage 8 mg + standard paclitaxel and carboplatin
[7] = single subjects, ovarian cancer, initial daily dosage 12 mg + standard platinum-based chemotherapy
[8] = 21 endometrial cancer subjects enrolled in Phase 2a, December 2018
[9] = endometrial cancer, second- and further-line treatment, eleven subjects

COc1cc2c(Oc3ccc4[nH]c(C)cc4c3F)ccnc2cc1OCC1(N)CC1 [AL3818 dihydrochloride]
share of patients with best response complete response (CR) ([1]; Phase 1, six evaluable patients (1/6)): 16.7%
share of patients with best response partial response (PR) ([1]; Phase 1, six evaluable patients (4/6)): 66.6%
Best response [1, 5]: SD
Best response [1, 6]: PR
Best response [1, 7]: PR
subjects discontinued due to disease progression (endometrial cancer; [8]): 8 subjects
partial responses (PR) as best responses (endometrial cancer; endometrial cancer, first-line treatment, eight subjects): five partial responses
Objective response rate (ORR) (endometrial cancer; endometrial cancer, first-line treatment, eight subjects Phase 2a (5/8)): 62.5%
disease control rate (DCR) (endometrial cancer; endometrial cancer, first-line treatment, eight subjects Phase 2a (6/8)): 75%
complete response (CR) as best responses (endometrial cancer; [9]): one complete response
partial responses (PR) as best responses (endometrial cancer; [9]): five partial responses
disease control rate (DCR) (endometrial cancer; endometrial cancer, second- and further-line treatment, eleven subjects (9/11)): 82%
Objective response rate (ORR) (endometrial cancer; endometrial cancer, second- and further-line treatment, eleven subjects Phase 1 and 2a (6/11)): 54.5%
Best response (endometrial cancer; single endometrial cancer subjects, Phase 2a, 8 mg daily + paclitaxel/carboplatin, December 2018): CR and PR and SD
Best Response (% reduction) (ovarian cancer): SD
subjects discontinued due to toxicity [2, 8]: 1 subject
TEAE abdominal pain ([2]; Phase 2a, % of all TEAEs): 4.20%
TEAE alopecia ([2]; Phase 2a, % of all TEAEs): 1.3%
TEAE anaemia ([2]; Phase 2a, % of all TEAEs): 1.8%
TEAE arthralgia ([2]; Phase 2a, % of all TEAEs): 1.6%
TEAE asthenia ([2]; Phase 2a, % of all TEAEs): 2.2%
TEAE back pain ([2]; Phase 2a, % of all TEAEs): 1.5%
TEAE constipation ([2]; Phase 2a, % of all TEAEs): 2.7%
TEAE decreased appetite ([2]; Phase 2a, % of all TEAEs): 2.7%
TEAE diarrhea ([2]; Phase 2a, % of all TEAEs): 6.3%
TEAE dyspnea ([2]; Phase 2a, % of all TEAEs): 1%
TEAE epistaxis ([2]; Phase 2a, % of all TEAEs): 3%
TEAE fatigue ([2]; Phase 2a, % of all TEAEs): 4.5%
TEAE flatulence ([2]; Phase 2a, % of all TEAEs): 1.5%
TEAE headache ([2]; Phase 2a, % of all TEAEs): 3.2%
TEAE hypertension ([2]; Phase 2a, % of all TEAEs): 3.3%
TEAE hypokalemia ([2]; Phase 2a, % of all TEAEs): 1.3%
TEAE hypomagnesaemia ([2]; Phase 2a, % of all TEAEs): 1%
TEAE insomnia ([2]; Phase 2a, % of all TEAEs): 1.3%
TEAE nausea ([2]; Phase 2a, % of all TEAEs): 4.7%
TEAE neuropathy peripheral ([2]; Phase 2a, % of all TEAEs): 2%
TEAE neutropenia ([2]; Phase 2a, % of all TEAEs): 2%
TEAE neutrophil count decreased ([2]; Phase 2a, % of all TEAEs): 1%
TEAE pain in extremity ([2]; Phase 2a, % of all TEAEs): 1.7%
TEAE pyrexia ([2]; Phase 2a, % of all TEAEs): 1.2%
TEAE thrombocytopenia ([2]; Phase 2a, % of all TEAEs): 1.7%
TEAE urinary tract infection ([2]; Phase 2a, % of all TEAEs): 1.3%
TEAE vomiting ([2]; Phase 2a, % of all TEAEs): 2.8%
TEAE weight decreased ([2]; Phase 2a, % of all TEAEs): 1%
dose limiting toxicity (DLT) events ([3]; 10 mg daily group, three patients, oral Day 8-21 of 21-day cycle + paclitaxel/carboplatin Day 1): one of the patients
dose limiting toxicity (DLT) events during the primary safety evaluation period ([3]; 12 mg daily group, three patients, oral Day 8-21 of 21-day cycle + paclitaxel/carboplatin Day 1): two of the patients out of three
safe daily dosage ([3]; 21-day cycle (14 days on, 7 off) combined with paclitaxel and carboplatin (or cisplatin)): 8 mg
recommended phase 2 dose (RP2D) ([3]; oral once daily Day 8-21 of 21-day cycle with platinum-based chemotherapy Day 1): 8 mg

COc1cc2c(Oc3ccc4[nH]c(C)cc4c3F)ccnc2cc1OCC1(N)CC1 [AL3818, (1-[[4-(4-fluoro-2-methyl-1H-indol-5-yloxy)-6-methoxyquinolin-7-yl]oxy]methyl]cyclopropaneamine]
Best response ([1]; single subject, cervical cancer, initial daily dosage 12 mg + standard platinum-based chemotherapy): NE/SAE
Best response ([1]; single subject, endometrial cancer, initial daily dosage 10 mg + standard platinum-based chemotherapy): PR
Best response [1, 5]: SD
Best response [1, 6]: PR
Best response ([1]; single subjects, ovarian cancer, initial daily dosage 10 mg + standard platinum-based chemotherapy): CR and NE/SAE
Best response [1, 7]: NE/SAE and PR
DLT [4]: one DLT
inhibition of VEGFR1 activity (VEGFR1): could inhibit
inhibition of VEGFR2/KDR activity (VEGFR2/KDR): could inhibit
inhibition of VEGFR3 activity (VEGFR3): could inhibit
inhibition of FGFR1 (FGFR1): strong inhibitor
inhibition of FGFR2 (FGFR2): strong inhibitor
inhibition of FGFR3 (FGFR3): strong inhibitor
inhibition of PDGFR-a (PDGFR-a): strong inhibitor
inhibition of c-KIT (c-KIT): strong inhibitor
anti-tumor effect of combination with chemotherapy agents (tumor): synergistic anti-tumor effects
dose limiting toxicity (DLT) events ([3]; 8 mg daily group, three patients, oral Day 8-21 of 21-day cycle + paclitaxel/carboplatin Day 1): no patient
tolerability of daily dosage of 12 mg ([3]; 12 mg daily together with platinum-based chemotherapy): too high
TEAE abdominal pain ([3]; Phase 1, nine subjects): 2.88%
TEAE alopecia ([3]; Phase 1, nine subjects): 2.91%
TEAE chest pain ([3]; Phase 1, nine subjects): 1.92%
TEAE dehydration ([3]; Phase 1, nine subjects): 1.92%
TEAE diarrhea ([3]; Phase 1, nine subjects): 4.81%
TEAE dizziness ([3]; Phase 1, nine subjects): 2.88%
TEAE fatigue ([3]; Phase 1, nine subjects): 4.81%
TEAE hypertension ([3]; Phase 1, nine subjects): 2.88%
TEAE nausea ([3]; Phase 1, nine subjects): 9.62%
TEAE pulmonary embolism ([3]; Phase 1, nine subjects): 1.92%
TEAE sore throat ([3]; Phase 1, nine subjects): 1.92%
TEAE thrombocytopenia ([3]; Phase 1, nine subjects): 1.94%
TEAE urinary tract infection ([3]; Phase 1, nine subjects): 2.88%
TEAE vomiting ([3]; Phase 1, nine subjects): 5.77%
TEAE weakness generalized ([3]; Phase 1, nine subjects): 2.88%
subjects reporting treatment emergent adverse events (TEAE) ([3]; Phase 1, nine subjects (9/9)): 100%
